Patent US10925890B2, “Use of dextran sulfate” (TX MEDIC AB, priority 2014, dated 2021)
Entries after “also recorded” stand apart in the source; their conditions may differ.

Columns and labels:
[1] = system: tMCAO rat-stroke model; test: Cerebral blood flow assessment (Flow-R Laser Doppler), tMCAO rat; assay type: in vivo; conditions: day 29
Protocol: (§1) Transient middle cerebral artery occlusion was performed according to the method previously described in Stroke 29, 2162-2170 (1998). The right common carotid artery (CCA) was exposed through a midline neck incision and carefully dissected free from surrounding nerves and fascia—from its bifurcation to the base of the skull. The occipital artery branches of the external carotid artery (ECA) were then isolated, and these branches were dissected and coagulated. The ECA was dissected further distally and coagulated along with the terminal lingual and maxillary artery branches, which was then divided. The internal carotid artery (ICA) was isolated and carefully separated from the adjacent vagus nerve, and the pterygopalatine artery was ligated close to its origin with a 5-0 nylon suture (SMI, Belgium). Next a 4-0 silk suture was tied loosely around the mobilized ECA stump, and a 4 cm length of 4-0 monofilament nylon suture (the tip of the suture was blunted by using a flame, and the suture was coated with polylysine, prior to insertion) was inserted through the proximal ECA into the ICA and thence into the circle of Willis, effectively occluding the MCA. […]
Evaluation of the blood flow on the brain cortex and vessel constriction was carried out using Flow-R Laser Doppler system, in which intracranial blood flow and vessels diameter (constriction/dilatation) was monitored. […]

[2] = system: tMCAO rat-stroke model; test: Stepping test, tMCAO rat; assay type: in vivo; conditions: groups 2M and 3M; from day 7 to day 28
Protocol: as §1, with “Belgium).” for “Belgium). Next a 4-0 silk suture was tied loosely around the mobilized ECA stump, and a 4 cm length of 4-0 monofilament nylon suture (the tip of the suture was blunted by using a flame, and the suture was coated with polylysine, prior to insertion) was inserted through the proximal ECA into the ICA and thence into the circle of Willis, effectively occluding the MCA.”
Animals were tested for forelimb akinesia using the stepping test. […] The number of adjusting steps were counted while the animal was moved sideways along the table surface (85 cm in approximately five seconds), in the forehand and backhand direction for both forelimbs.

[3] = system: tMCAO rat-stroke model; test: Neurological test score (Neuroscore, mNRS), tMCAO rat; assay type: in vivo; conditions: groups 2M (30 mg/kg 3 times per week) and 3M (daily); day 7 up to day 28
Protocol: as §1, with “MCA. The surgical wound was closed and the animals were returned to their cages to recover from anesthesia.” for “MCA.”

[4] = system: Critical Hind-Limb Ischemia Mouse Model; test: In vivo assessment of limb function, mouse hind-limb ischemia
Protocol: Semi-quantitative assessment of impaired use of the ischemic limb was performed once a week post-surgery using the following scale, see Table 7.
Limb function was graded as “Not applicable” in case of partial or full limb amputation. In such case blood flow measurements was not included in the statistical analysis.

[5] = system: rat model of myocardial infarction; test: SMA vascular density count, rat myocardial infarction model; assay type: in vivo; conditions: group 2M, 15 mg/kg 3 times/week for 3 weeks; 35 days after MI induction; infarct region
Protocol: On the day of surgery the animals were anesthetized with a combination of 90 mg/kg ketamine and 10 mg/kg xylazine. In order to induce MI, under anesthesia and analgesia, the rat chest was opened by left thoracotomy, the pericardium was removed and the proximal left coronary artery was permanently occluyded with an intramural stitch (Circulation 117, 1388-1396 (2008)). Two hours post surgery, each animal in all treated groups were injected s.c. with dextran sulfate or saline vehicle according to Table 11.
For the purpose of MI size identification, Masson's Trichrome Staining was used. Nine hearts of a treated (2M) group and eight of the untreated (1M) group were sectioned transversely into five sections that were imbedded in paraffin. Five paraffin sections at 5 μm were performed on a Lika microtome. All sections were stained according to standard Masson's trichrome protocol. The sections were visualized in a computer-imaging system and infarct size was marked and calculated using the ImageJ program. Infarct size was expressed as percentage of infarct area (unstained) versus the total left ventricle area. For each animal, five serial sections including one containing the ligature were analyzed and the mean value of all sections for each heart was calculated. Immunohistobchemistry marker (Smooth Muscle Actin—SMA) was used for evaluating the vascular density count. […]

[6] = system: Critical Hind-Limb Ischemia Mouse Model; test: Macroscopic evaluation of ischemic severity (necrosis grades), mouse hind-limb ischemia
Text: On the day of surgery anesthesia was induced by 1.5 to 3.0% isoflurane, 1.5% N2O and 0.5% O2. Under anesthesia, the mice were placed with ventral side up. A 0.5-1.0 cm incision was made in the skin in the inguinal area. The femoral artery was ligated proximally just after the distal part of the iliac artery and distally after its bifurcation with profound femoral artery with 6-0 silk thread, transected and excised between two ligatures. The wound was closed with 4-0 silk thread and the mice were allowed to recover.
On day 8, week 2 post-surgery, each animal in groups 2M and 3M were injected dextran sulfate solution s.c. three times a week.

[7] = day 7 (before treatment), group 2M, 10 mg/kg 3 times/week
[8] = day 7 (before treatment), group 3M, 30 mg/kg 3 times/week
[9] = day 7 (before treatment), group 4M, 30 mg/kg 1 time/week
[10] = day 35, group 2M, 10 mg/kg s.c. 3 times/week
[11] = day 35, group 3M, 30 mg/kg s.c. 3 times/week
[12] = day 35, group 4M, 30 mg/kg s.c. 1 time/week
[13] = day 7 (before treatment start day 8), group 2M, 10 mg/kg 3 times/week
[14] = day 7 (before treatment start day 8), group 3M, 30 mg/kg 3 times/week
[15] = day 7 (before treatment start day 8), group 4M, 30 mg/kg 1 time/week

Substance: Dextran sulfate
- Vessels diameter ratio versus control [1]: increased
- Cerebral blood perfusion rate versus control vehicle-treated group ([1]; groups 2M and 3M, damaged hemisphere): Statistically significant improvement
- Stepping test, functional improvement compared to control [2]: improvement reached statistical significance
- Neuroscore (0-18) compared to vehicle treated control [3]: Statistically significant differences
- Limb function score (0-3, 3 worst) ([4]; 10 or 30 mg/kg, 1x/w or 3x/w from day 8, from day 21 and onward, two-way ANOVA): significant improvement
- Incidence of mice with limb function score 0 [4, 7]: 0.0%
- Incidence of mice with limb function score 1 [4, 7]: 0.0%
- Incidence of mice with limb function score 2 [4, 7]: 21.4%
- Incidence of mice with limb function score 3 [4, 7]: 79.6%
- Incidence of mice with limb function score 0 [4, 8]: 0.0%
- Incidence of mice with limb function score 1 [4, 8]: 0.0%
- Incidence of mice with limb function score 2 [4, 8]: 21.4%
- Incidence of mice with limb function score 3 [4, 8]: 79.6%
- Incidence of mice with limb function score 0 [4, 9]: 0.0%
- Incidence of mice with limb function score 1 [4, 9]: 0.0%
- Incidence of mice with limb function score 2 [4, 9]: 7.1%
- Incidence of mice with limb function score 3 [4, 9]: 92.9%
- Incidence of mice with limb function score 0 [4, 10]: 50.0%
- Incidence of mice with limb function score 1 [4, 10]: 42.9%
- Incidence of mice with limb function score 2 [4, 10]: 7.1%
- Incidence of mice with limb function score 3 [4, 10]: 0.0%
- Incidence of mice with limb function score 0 [4, 11]: 72.4%
- Incidence of mice with limb function score 1 [4, 11]: 21.5%
- Incidence of mice with limb function score 2 [4, 11]: 7.1%
- Incidence of mice with limb function score 3 [4, 11]: 0.0%
- Incidence of mice with limb function score 0 [4, 12]: 69.2%
- Incidence of mice with limb function score 1 [4, 12]: 30.8%
- Incidence of mice with limb function score 2 [4, 12]: 0.0%
- Incidence of mice with limb function score 3 [4, 12]: 0.0%
- SMA capillary density compared to vehicle control [5]: higher SMA capillary density; also recorded: trend of increase in capillaries density
- Incidence of mice with limb amputation [6, 13]: 0.0%
- Incidence of mice with toe necrosis [6, 13]: 0.0%
- Incidence of mice with limb amputation [6, 14]: 0.0%
- Incidence of mice with toe necrosis [6, 14]: 0.0%
- Incidence of mice with limb amputation [6, 15]: 0.0%
- Incidence of mice with toe necrosis [6, 15]: 0.0%
- Incidence of mice with limb amputation ([6]; day 35, group 2M, 10 mg/kg s.c. 3 times/week, vehicle 15.4): 0.0%
- Incidence of mice with toe necrosis ([6]; day 35, group 2M, 10 mg/kg s.c. 3 times/week, vehicle 23.1): 21.4%
- Incidence of mice with limb amputation ([6]; day 35, group 3M, 30 mg/kg s.c. 3 times/week, vehicle 15.4): 0.0%
- Incidence of mice with toe necrosis ([6]; day 35, group 3M, 30 mg/kg s.c. 3 times/week, vehicle 23.1): 14.3%
- Incidence of mice with limb amputation ([6]; day 35, group 4M, 30 mg/kg s.c. 1 time/week, vehicle 15.4): 7.1%
